The results in this text go back to ChEMBL document CHEMBL4610068, “Diterpenoids from the Root Bark of Pinus massoniana and Evaluation of Their Phosphodiesterase Type 4D Inhibitory Activity” (J Nat Prod, 2020).

Broadly, the IC50 is the midpoint of a concentration-inhibition curve.

The experiment concerns the target 3',5'-cyclic-AMP phosphodiesterase 4D (Homo sapiens, UniProt Q08499). Briefly: Inhibition of human PDE4D catalytic domain (86 to 413 residues) expressed in Escherichia coli BL21 (DE3) cells using [3H]cAMP as substrate measured after 30 mins by scintillation proximity assay. For orientation: Scintillation proximity formats need no separation of bound from free tracer.

Sequence of 3',5'-cyclic-AMP phosphodiesterase 4D (Q08499 whole entry, the tested form may be a part): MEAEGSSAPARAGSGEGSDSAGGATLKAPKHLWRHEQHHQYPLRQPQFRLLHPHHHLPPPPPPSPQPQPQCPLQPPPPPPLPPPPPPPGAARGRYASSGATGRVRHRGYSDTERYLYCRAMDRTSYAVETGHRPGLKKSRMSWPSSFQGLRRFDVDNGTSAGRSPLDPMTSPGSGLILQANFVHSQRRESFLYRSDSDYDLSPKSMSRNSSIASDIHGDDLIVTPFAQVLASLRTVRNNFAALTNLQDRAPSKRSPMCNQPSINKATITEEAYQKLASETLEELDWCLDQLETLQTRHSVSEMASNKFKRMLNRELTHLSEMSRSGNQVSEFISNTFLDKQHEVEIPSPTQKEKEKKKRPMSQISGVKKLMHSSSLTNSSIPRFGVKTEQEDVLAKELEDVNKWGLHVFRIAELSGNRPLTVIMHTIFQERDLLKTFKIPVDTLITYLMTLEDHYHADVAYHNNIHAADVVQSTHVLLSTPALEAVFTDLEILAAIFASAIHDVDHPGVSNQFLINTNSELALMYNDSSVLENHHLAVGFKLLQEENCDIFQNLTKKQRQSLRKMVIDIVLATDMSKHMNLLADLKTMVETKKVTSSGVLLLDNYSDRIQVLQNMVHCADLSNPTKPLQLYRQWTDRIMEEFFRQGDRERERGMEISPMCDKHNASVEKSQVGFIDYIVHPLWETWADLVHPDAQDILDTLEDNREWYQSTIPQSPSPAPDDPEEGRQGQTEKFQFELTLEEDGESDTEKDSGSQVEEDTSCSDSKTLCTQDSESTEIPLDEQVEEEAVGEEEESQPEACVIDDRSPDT

Take `C=C(C)c1ccc2c(c1)CC[C@H]1[C@](C)(C(=O)O)CCC[C@]21C`: the IC50 came to 3.3 µM.

The compound `CC(C)C1=CC[C@H]2C(=CC[C@@H]3[C@]2(C)CCC[C@@]3(C)C(=O)O)C1=O` gave an IC50 of 2.8 µM.
